Source: patent publication US9914910B2, “Methods of preserving and protecting pancreatic beta cells and treating or preventing diabetes by inhibiting NOX-1” (Eastern Virginia Medical School, priority 2013, dated 2018)

How the values were obtained:
NOX-1 = target: T1, NOX-1 (Homo sapiens, UniProt Q9Y5S8); details: cited from earlier work
T1 sequence (Q9Y5S8 1-564): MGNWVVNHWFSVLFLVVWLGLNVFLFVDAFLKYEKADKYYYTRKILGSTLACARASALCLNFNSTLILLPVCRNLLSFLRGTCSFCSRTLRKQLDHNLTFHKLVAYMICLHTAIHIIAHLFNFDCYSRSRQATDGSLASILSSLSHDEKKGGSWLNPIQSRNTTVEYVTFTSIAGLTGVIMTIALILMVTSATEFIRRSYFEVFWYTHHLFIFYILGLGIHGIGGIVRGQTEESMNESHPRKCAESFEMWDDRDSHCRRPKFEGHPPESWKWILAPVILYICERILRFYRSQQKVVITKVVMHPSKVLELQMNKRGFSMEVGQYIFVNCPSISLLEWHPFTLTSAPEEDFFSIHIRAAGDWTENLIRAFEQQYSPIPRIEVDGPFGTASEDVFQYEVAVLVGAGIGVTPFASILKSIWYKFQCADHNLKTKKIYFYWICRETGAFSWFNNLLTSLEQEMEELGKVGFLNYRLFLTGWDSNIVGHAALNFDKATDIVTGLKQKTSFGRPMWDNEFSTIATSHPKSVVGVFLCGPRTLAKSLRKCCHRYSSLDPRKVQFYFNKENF
T1 sequence (P13498 1-195 partner): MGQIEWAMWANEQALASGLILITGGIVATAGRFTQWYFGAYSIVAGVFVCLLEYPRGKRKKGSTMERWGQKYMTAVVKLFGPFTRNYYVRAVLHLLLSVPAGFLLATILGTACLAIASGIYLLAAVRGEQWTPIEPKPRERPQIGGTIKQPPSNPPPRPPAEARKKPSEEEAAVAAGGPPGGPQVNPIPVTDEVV

[1] = system: NOX-1 gene expression in βTC-3 cells; experiment: PIC-induced NOX-1 gene expression (RT-PCR); assay type: cell-based, mouse; details: βTC-3, PIC 24 hours
Description: Total RNA was isolated using the RNeasy Mini Kit (Qiagen, Valencia, Calif.) and cDNA prepared using MMLV reverse transcriptase (Life Technologies) and random hexamers (Life Technologies). Jump Start Taq polymerase (Life Technologies) was used in PCR reactions. […] RT-PCR reactions were performed in triplicate (CFX96 Bio-Rad, Hercules, Calif.). Taqman primers (Life Technologies) were also used. Data was normalized to the housekeeping gene GAPDH and analyzed using the 2-ΔΔCT method.

βTC-3 cells = experiment: Apoptosis by YO-PRO-1 fluorescence microscopy after PIC; assay type: cell-based, mouse; details: βTC-3, PIC 24 hours, p<0.001
Description: (§1) B. Fluorescence microscopy: Stimulated cells or islets were washed in cold PBS, and incubated for 30 mins at 40 C with cold PBS containing 1 μg/mL propidium iodide and 0.1 μM YO-PRO-1 (Life Technologies). For cell lines, five randomly fields per well were analyzed. For islets, all islets (>1000 um2 in size) were analyzed. Densitometric fluorescent value for YO-PRO-1 (green channel) was normalized to background and expressed proportional to cell occupied area (phase contrast). Images captured across three channels with Axiophot (Zeiss, Jena, Germany) with Axiovision (Zeiss) image analysis.

[2] = system: primary human donor islets; experiment: as above; assay type: cell-based; details: 10 μM ML171
Description: Human donor islets were obtained from integrated islet distribution project (http://iidp.coh.org) and cultured in CMRL media (Mediatech, Manassas, Va.). Mouse islets were freshly isolated from 8-week old male C57BL/6J mice (Jackson Laboratory, Bar Harbor, Me.) by common bile duct cannulation and collagenase digestion. Islets were hand picked prior to use.
as §1

CC(=O)c1ccc2c(c1)Nc1ccccc1S2 [ML171, 2-acetylphenothiazine]
inhibition of NOX-1 (in words) (NOX-1): nanomolar inhibitor | specificity for NOX-1 inhibition over NOX-2 inhibition and other NOX isoforms (NOX-1): greater than 30 fold | inhibition of PIC-induced expression of NOX-1 gene [1]: 23% | PIC-induced apoptosis (YO-PRO-1) (βTC-3 cells): apoptosis was significantly decreased | reduction of beta-cell apoptosis induced by PICs [2]: 30%±3%
